We go through eleven compounds from ChEMBL document CHEMBL1201862, “PubChem BioAssay data set” (2004).

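48-hour exposure; five concentrations; linearly interpolated endpoints. GI50: concentration for 50% inhibition of growth.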 Calls of active or inactive are those of the source. Rule as the data show it: active = GI50 up to about 1.1 µM and inactive = higher. Bounds are passed on as bounds.

Among the test systems are HCT-15; RPMI-8226; SK-OV-3; PC-3; UACC-257; SK-MEL-5; UO-31; Malme-3M; A549; OVCAR-5; SNB-75; A498; EKVX; NCI/ADR-RES; MCF7; DU-145; MDA-MB-231; SF-539; NCI-H23; K562.
What all share (test): NCI anticancer screen, dose series, 48 h

Consider `O=C1c2scc(-c3ccccc3)c2-n2cccc21`, for which the GI50 was 34.1 µM in the assay with HCT-15; 5 µM (inactive) in the assay with RPMI-8226; 19.3 µM (inactive) with SK-OV-3; 11.7 µM (inactive) in the assay on PC-3; 30.1 µM (inactive) in the assay with UACC-257; 15.1 µM (inactive) in the assay with SK-MEL-5. Also, the GI50 in the assay on UO-31 was 22.5 µM (inactive); with Malme-3M, 16.4 µM (inactive); in the assay with A549, 18.5 µM (inactive); in the assay with OVCAR-5, 21 µM (inactive); in the assay on SNB-75 it was 3.46 µM (inactive); in the assay with A498, 1.72 µM (inactive). Besides, the GI50 in the assay on EKVX is 4.89 µM (inactive); in the assay with NCI/ADR-RES, 17.5 µM (inactive); in the assay with MCF7, 17.3 µM (inactive); in the assay on DU-145, 26.3 µM (inactive); in the assay on MDA-MB-231, 14.8 µM (inactive).
Regarding `CC(C)(C)C(=O)Nc1cccc(-c2ccc[nH]2)n1`, the GI50 in the assay with HCT-15 is greater than 100 µM; with RPMI-8226 it was < 0.01 µM (active); in the assay on SK-OV-3 it was > 100 µM (inactive); with PC-3, > 100 µM (inactive); in the assay on UACC-257, > 84.9 µM (inactive); in the assay with SK-MEL-5 it was 68.7 µM (inactive). Further, the GI50 with UO-31 is > 96.8 µM (inactive); in the assay with Malme-3M, > 100 µM (inactive); in the assay on A549, > 100 µM (inactive); in the assay on OVCAR-5, > 100 µM (inactive); with SNB-75, > 60.8 µM (inactive); in the assay on A498, > 100 µM (inactive). Besides, the GI50 in the assay with SF-539 is > 100 µM (inactive); with NCI-H23 it was > 100 µM (inactive); in the assay on EKVX it was > 85.7 µM (inactive); with NCI/ADR-RES, > 100 µM (inactive); with MCF7, > 100 µM (inactive); with DU-145, > 100 µM (inactive). Further, in the assay on MDA-MB-231, the GI50 is > 65 µM (inactive).
With `NCCN(CCN(C(=O)Nc1ccccc1)c1ccccc1)C(=O)Nc1ccccc1`, the GI50 was 24.5 µM in the assay with HCT-15; 44.4 µM (inactive) in the assay on K562; 27.5 µM (inactive) in the assay on RPMI-8226; 20 µM (inactive) with SK-OV-3; 24.5 µM (inactive) with PC-3; 19 µM (inactive) in the assay with UACC-257. Moreover, the GI50 in the assay on SK-MEL-5 was 18.5 µM (inactive); in the assay with UO-31, 15.3 µM (inactive); in the assay with Malme-3M, 17.1 µM (inactive); in the assay with A549, 30.6 µM (inactive); in the assay with OVCAR-5 it was 19 µM (inactive); in the assay on SNB-75, 18.1 µM (inactive). The GI50 with A498 is 18.3 µM (inactive); in the assay on NCI-H23, 24.3 µM (inactive); in the assay on EKVX it was 23.6 µM (inactive); in the assay with NCI/ADR-RES, 30.8 µM (inactive); in the assay with MCF7, 19.6 µM (inactive); with DU-145, 18.2 µM (inactive). Besides, the GI50 with MDA-MB-231 was 39.1 µM (inactive).
In the case of `CCOc1ccccc1/N=N/C1C(=O)N(C(=O)CC(=O)Nc2ccccc2C)N=C1C` (stereo not given), the GI50 in the assay on HCT-15 is 20.9 µM; in the assay with RPMI-8226 it was 43.9 µM (inactive); in the assay with SK-OV-3 it was 19.7 µM (inactive); with PC-3 it was > 100 µM (inactive); in the assay with SK-MEL-5, > 100 µM (inactive); with UO-31, 27.2 µM (inactive). The GI50 in the assay with Malme-3M was > 100 µM (inactive); in the assay on A549, 89.7 µM (inactive); in the assay on OVCAR-5, > 100 µM (inactive); with SNB-75 it was 24.2 µM (inactive); in the assay on A498, 29.2 µM (inactive); in the assay on SF-539, 56 µM (inactive). Also, the GI50 in the assay with NCI-H23 was 59.7 µM (inactive); in the assay on EKVX, 0.984 µM (active); in the assay on NCI/ADR-RES it was 54.6 µM (inactive); in the assay with MCF7, > 100 µM (inactive); in the assay with DU-145 it was 79.3 µM (inactive); with MDA-MB-231, 37.8 µM (inactive).
In the case of `N=C(N)Nc1ccc(CC(N)C(=O)NCC(=O)C(CC(=O)O)c2ncc(NC(=O)C(F)(F)F)o2)cc1` (stereo not given), the GI50 was greater than 25 µM in the assay on HCT-15; > 25 µM (inactive) in the assay with RPMI-8226; > 25 µM (inactive) with SK-OV-3; > 25 µM (inactive) with PC-3; > 25 µM (inactive) with UACC-257; > 25 µM (inactive) in the assay with SK-MEL-5. Also, the GI50 in the assay with UO-31, with Malme-3M, in the assay on A549, in the assay with OVCAR-5, in the assay on SNB-75 and with A498 was > 25 µM (inactive) in each case. The GI50 in the assay on SF-539 is > 25 µM (inactive); with NCI-H23 it was > 25 µM (inactive); in the assay on EKVX, > 25 µM (inactive); with NCI/ADR-RES, > 25 µM (inactive); in the assay with MCF7, 18.4 µM (inactive); with DU-145, > 25 µM (inactive). Further, the GI50 with MDA-MB-231 was > 25 µM (inactive).
Take `COc1ccc(OC/C(N)=N/NC(=O)c2ccncc2)cc1`: the GI50 in the assay with HCT-15 was greater than 100 µM; in the assay on K562, > 100 µM (inactive); with RPMI-8226, > 100 µM (inactive); in the assay with SK-OV-3 it was > 100 µM (inactive); with PC-3, > 100 µM (inactive); in the assay with UACC-257, > 100 µM (inactive). For the same compound, the GI50 in the assay with Malme-3M is > 100 µM (inactive); in the assay with A549 it was > 100 µM (inactive); in the assay on OVCAR-5 it was > 100 µM (inactive); in the assay on SNB-75 it was 8.22 µM (inactive); with A498, > 100 µM (inactive); in the assay with SF-539 it was > 100 µM (inactive). Further, the GI50 with NCI-H23, in the assay with EKVX, with NCI/ADR-RES, in the assay with MCF7, in the assay on DU-145 and in the assay with MDA-MB-231 was > 100 µM (inactive) in each case.
In the case of `CC1CNC(NS(=O)(=O)c2cc(C(=O)Nc3ccc(Cl)cc3)c(Cl)cc2S)=NN1` (stereo not given), the GI50 with HCT-15 was 20.8 µM; in the assay with K562, 31.1 µM (inactive); with RPMI-8226 it was 28.9 µM (inactive); with SK-OV-3, 59.4 µM (inactive); in the assay on PC-3 it was 30 µM (inactive); in the assay with UACC-257, 54.2 µM (inactive). The GI50 is 14.1 µM (inactive) in the assay with SK-MEL-5; 49.7 µM (inactive) in the assay with UO-31; 17.9 µM (inactive) in the assay with Malme-3M; 28.6 µM (inactive) in the assay on A549; 38.5 µM (inactive) in the assay with OVCAR-5; 18.1 µM (inactive) with A498. Besides, the GI50 in the assay with SF-539 is 30.8 µM (inactive); with NCI-H23 it was 27.4 µM (inactive); in the assay with EKVX, 63 µM (inactive); in the assay on NCI/ADR-RES, 36.6 µM (inactive); in the assay with MCF7, 45 µM (inactive); in the assay with DU-145 it was 30.2 µM (inactive). The GI50 in the assay with MDA-MB-231 was 37.8 µM (inactive).
With `Nc1nc(Nc2ccc(Cl)cc2)sc1C(=O)c1cc2ccccc2oc1=O`, the GI50 is 34.5 µM in the assay on HCT-15; 33.8 µM (inactive) with K562; 29.4 µM (inactive) in the assay on RPMI-8226; 20.7 µM (inactive) in the assay with SK-OV-3; 48.1 µM (inactive) in the assay on PC-3; 69.5 µM (inactive) in the assay on UACC-257. Further, the GI50 with SK-MEL-5 is 67.6 µM (inactive); in the assay with UO-31 it was > 100 µM (inactive); in the assay on Malme-3M it was 19.1 µM (inactive); in the assay with A549, 98.9 µM (inactive); in the assay on OVCAR-5, > 100 µM (inactive); in the assay with SNB-75 it was 7.55 µM (inactive). Further, the GI50 in the assay with A498 was 19.2 µM (inactive); with SF-539, 71.6 µM (inactive); in the assay on NCI-H23, 2.93 µM (inactive); in the assay with NCI/ADR-RES, 38.5 µM (inactive); in the assay on MCF7, 25 µM (inactive); in the assay with DU-145, 74.6 µM (inactive). Further, the GI50 in the assay with MDA-MB-231 is 37.8 µM (inactive).
Regarding `CC/C=C/c1cc2c(cc1O)CCC1C2CC[C@@]2(C)C1CC[C@@H]2O` (stereo not given in full), the GI50 in the assay on HCT-15 is 4.33 µM; in the assay with K562 it was 1.28 µM (inactive); with RPMI-8226, 1.89 µM (inactive); with SK-OV-3, 2.43 µM (inactive); in the assay on PC-3 it was 3.49 µM (inactive); with UACC-257, 10.4 µM (inactive). Besides, the GI50 with SK-MEL-5 is 1.56 µM (inactive); in the assay on UO-31 it was 6.03 µM (inactive); in the assay with Malme-3M, 0.524 µM (active); in the assay on A549, 4.12 µM (inactive); with OVCAR-5, 12.5 µM (inactive); in the assay on SNB-75 it was 1.44 µM (inactive). In addition, the GI50 in the assay on A498 is 2.56 µM (inactive); in the assay with NCI-H23 it was 3.33 µM (inactive); in the assay on EKVX, 3.53 µM (inactive); in the assay with NCI/ADR-RES it was 0.667 µM (active); in the assay on MCF7 it was 1.08 µM (active); with DU-145, 2.76 µM (inactive). The GI50 in the assay with MDA-MB-231 was 3.53 µM (inactive).
With `O=C(O)c1cnc2[nH]ccn2c1=O`, the GI50 in the assay on HCT-15 is greater than 100 µM; in the assay with K562, > 100 µM (inactive); with RPMI-8226, > 100 µM (inactive); in the assay with SK-OV-3 it was > 100 µM (inactive); in the assay on PC-3, > 100 µM (inactive); with UACC-257, > 100 µM (inactive). Moreover, the GI50 with SK-MEL-5, in the assay on UO-31, in the assay with Malme-3M, in the assay with A549, in the assay with OVCAR-5 and in the assay with SNB-75 was > 100 µM (inactive) throughout. For the same compound, the GI50 in the assay on A498, in the assay with NCI-H23, in the assay on EKVX, in the assay on NCI/ADR-RES, with MCF7 and in the assay on DU-145 was > 100 µM (inactive) each time. For the same compound, the GI50 in the assay with MDA-MB-231 is > 100 µM (inactive).
For the compound `Cc1ccc(/C=N/NS(=O)(=O)c2ccc(/C=C3\NC(=O)NC3=O)cc2)cc1`, the GI50 in the assay with HCT-15 is greater than 100 µM; with K562, > 100 µM (inactive); with RPMI-8226, > 100 µM (inactive); in the assay with SK-OV-3, > 100 µM (inactive); with PC-3, > 100 µM (inactive); in the assay with UACC-257 it was > 100 µM (inactive). In addition, the GI50 in the assay on SK-MEL-5 is > 100 µM (inactive); in the assay with UO-31, > 100 µM (inactive); in the assay on Malme-3M it was > 100 µM (inactive); with A549, > 100 µM (inactive); with OVCAR-5, 35.9 µM (inactive); in the assay with SNB-75, 18.2 µM (inactive). Moreover, the GI50 is > 100 µM (inactive) in the assay on A498; > 100 µM (inactive) with NCI-H23; 64.9 µM (inactive) with EKVX; 75.7 µM (inactive) in the assay with NCI/ADR-RES; > 100 µM (inactive) in the assay with MCF7; > 100 µM (inactive) in the assay on DU-145. Besides, the GI50 in the assay with MDA-MB-231 was 37.1 µM (inactive).
